{"source": "patent US7842721B2", "about": "“Composition for treating cancer cells and synthetic method for the same” (Kaohsiung Medical University, priority 2007, dated 2010)", "key": {"human cancer cell lines": {"system": "human cancer cell lines", "assay": "in vitro cytotoxic activities against several human cancer lines (panel summary)", "type": "cell-based", "details": "for cytotoxic activity against cancer cell lines (in words): especially Hep3B and MDA-MB-231", "experimental": "(§1) Human liver (HepG2 and Hep3B), breast (MCF-7 and MDA-MB-231), and lung (A549) cancer cell lines were propagated in RPMI-1640 medium supplement with 10% (v/v) FBS, 100 U/mL penicillin and 100 µg/mL streptomycin at 37° C. in a humidified atmosphere of 5% CO2 and 95% air. The culturing medium is changed every three days. Upon confluency, cells were subcultured to confluency, and used for experiments. The experimental period is determined according to the aim of experiment.\n(§2) Cytotoxicity is measured by the MTT calorimetric method. Cells were seeded at densities of 5,000-10,000 cells/well in 96-well tissue culture plates. On day two, cells are treated with test compounds for another 72 hrs. After drug treatment, attached cells were incubated with MTT (0.5 mg/mL) for 1 hr and subsequently solubilized in DMSO. The absorbency at 550 nm is then measured using a microplate reader. The IC50 is the concentration of agent that reduces the cell viability by 50% under the experimental conditions, and the cytotoxic compound, Doxorubicin, is used as a positive control.\nIt is known that both the protoapigenone compound and its derivatives synthesized by a chemical method have cytotoxic effect against cancer cells, similar to nature protoapigenone compound extracted from a plant."}, "HepG2": {"system": "HepG2", "assay": "MTT cytotoxicity assay, HepG2", "type": "cell-based, Human", "details": "for IC50 HepG2: human liver cancer cells, MTT, 72 hrs treatment", "experimental": "as §1, §2"}, "A549": {"system": "A549", "assay": "MTT cytotoxicity assay, A549", "type": "cell-based", "details": "human lung cancer cells, 72 hrs treatment", "experimental": "as §1, §2"}, "MDA-MB-231": {"system": "MDA-MB-231", "assay": "MTT cytotoxicity assay, MDA-MB-231", "type": "cell-based", "details": "human breast cancer cells, 72 hrs treatment", "experimental": "as §1, §2"}, "Hep3B": {"system": "Hep3B", "assay": "MTT cytotoxicity assay, Hep3B", "type": "cell-based", "details": "human liver cancer cells, 72 hrs treatment", "experimental": "as §1, §2"}, "MCF-7": {"system": "MCF-7", "assay": "MTT cytotoxicity assay, MCF-7", "type": "cell-based", "details": "human breast cancer cells, 72 hrs treatment", "experimental": "as §1, §2"}, "[1]": {"system": "human cancer cell lines (MCF-7, MDA-MB-231, Hep G2, Hep 3B, A549)", "details": "compound derived from Thelypteris torresiana; Planta Medica 71:867-870, 2005; cited from earlier work"}}}
{"smiles": "O=C1C=CC(O)(c2cc(=O)c3ccccc3o2)C=C1", "note": "[Compound 8a, 2-(1-hydroxy-4-oxocyclohexa-2,5-dienyl)-4H-chromen-4-one]", "values": [{"measurement": "cytotoxic activity against cancer cell lines (in words)", "setting": "human cancer cell lines", "result": "significant cytotoxic activity"}]}
{"smiles": "COC1(c2cc(=O)c3ccccc3o2)C=CC(=O)C=C1", "note": "[Compound 8b, 1′-methoxyprotoflavonoen]", "values": [{"measurement": "IC50 HepG2", "setting": "HepG2", "result": 10.95, "unit": "µg/mL"}, {"measurement": "IC50 A549", "setting": "A549", "result": ">20", "unit": "µg/mL"}, {"measurement": "IC50 MDA-MB-231", "setting": "MDA-MB-231", "result": 1.47, "unit": "µg/mL"}, {"measurement": "IC50 Hep3B", "setting": "Hep3B", "result": 1.45, "unit": "µg/mL"}, {"measurement": "IC50 MCF-7", "setting": "MCF-7", "result": 2.14, "unit": "µg/mL"}]}
{"smiles": "O=C1C=CC(O)(c2cc(=O)c3c(O)cccc3o2)C=C1", "note": "[Compound 10a, 2-(1-hydroxy-4-oxocyclohexa-2,5-dienyl)-5-hydroxy-4H-chromen-4-one]", "values": [{"measurement": "cytotoxic activity against cancer cell lines (in words)", "setting": "human cancer cell lines", "result": "significant cytotoxic activity"}]}
{"smiles": "COC1(c2cc(=O)c3c(C)cccc3o2)C=CC(=O)C=C1", "note": "[Compound 10b, 1′-methoxy-5-methylprotoflavonone]", "values": [{"measurement": "IC50 HepG2", "setting": "HepG2", "result": 7.64, "unit": "µg/mL"}, {"measurement": "IC50 A549", "setting": "A549", "result": 16.36, "unit": "µg/mL"}, {"measurement": "IC50 MDA-MB-231", "setting": "MDA-MB-231", "result": 0.54, "unit": "µg/mL"}, {"measurement": "IC50 Hep3B", "setting": "Hep3B", "result": 0.66, "unit": "µg/mL"}, {"measurement": "IC50 MCF-7", "setting": "MCF-7", "result": 1.55, "unit": "µg/mL"}]}
{"smiles": "O=C1C=CC(O)(c2cc(=O)c3c(ccc4ccccc43)o2)C=C1", "note": "[Compound 15a, 3-(1-hydroxy-4-oxocyclohexa-2,5-dienyl)-1H-benzo[f]chromen-1-one]", "values": [{"measurement": "cytotoxic activity against cancer cell lines (in words)", "setting": "human cancer cell lines", "result": "significant cytotoxic activity"}]}
{"smiles": "COc1cc(O)c2c(=O)cc(C3(O)C=CC(=O)C=C3)oc2c1", "note": "[Compound 18a, 5-hydroxy-2-(1-hydroxy-4-oxocyclohexa-2,5-dienyl)-7-methoxy-4H-chromen-4-one]", "values": [{"measurement": "activity against the HepG2 human liver cancer cell line (in words)", "setting": "HepG2; compared with most analogs", "result": "significantly enhanced activity"}, {"measurement": "cytotoxic activity against cancer cell lines (in words)", "setting": "human cancer cell lines", "result": "significant cytotoxic activity"}, {"measurement": "potency against all five cancer cell lines, among the derivatives (in words)", "setting": "human cancer cell lines; five cancer cell lines", "result": "highest potency"}]}
{"smiles": "O=C1C=CC(O)(c2cc(=O)c3c(O)cc(O)cc3o2)C=C1", "note": "[protoapigenone]", "values": [{"measurement": "cytotoxic activities to human cancer cell lines (in words)", "setting": "[1]", "result": "strong cytotoxic activities"}]}
